{"source": "patent US20040132643A1", "about": "(priority 2004, published 2004)", "key": {"[1]": {"tested_on": "histone deacetylase", "assay": "Histone acetylation by immunofluorescence microscopy (anti-acetylated histone H3) in thyroid carcinoma cells", "type": "cell-based, human", "settings": "1 ng/ml FR901228 for 72 hours", "method": "Histone acetylation was detected by immunofluorescence microscopy. In this experimental approach, fixed cells are exposed to a primary antibody that specifically binds to acetylated histones, and then exposed to an FITC-labeled secondary antibody that binds to the primary antibody.\nFTC 236 and SW-1736 cells were cultured as described in Example 1, and treated for 72 hours with 1 ng/ml FR901228. Control FTC 236 and SW-1736 received no FR901228, but were otherwise treated identically to the FR901228-exposed cells. After 72 hours, each culture was treated with trypsin, harvested, and subjected to low speed centrifugation to form a cell pellet. Cells from each pellet were placed on microscope slides and fixed with 95% ethanol/5% acetic acid for one minute at room temperature. After fixation, slides were washed twice with phosphate buffered saline (PBS) for 15 minutes, treated with 8% bovine serum albumin in PBS for one hour at room temperature, and washed 15 minutes in PBS.\nThe fixed cells were then incubated overnight at 4° C. with 5 ug/ml anti-alpha acetylated histone H3 in 2% bovine serum albumin in PBS (antibody obtained from Upstate Biotechnology, Lake Placid N.Y.). Subsequently, cells were washed twice with PBS for five minutes at room temperature and then incubated with horse anti-rabbit FITC-conjugated secondary antibody (from Vector Labs, Burlingame Calif.). […]"}, "[2]": {"tested_on": "thymidine kinase (TK) promoter enhancer", "assay": "TK-luciferase reporter assay (positive control) in transfected thyroid carcinoma cells", "type": "cell-based, human", "settings": "1 ng/ml FR901228", "text": "As a positive control, FTC 236 and SW-1736 cells were transfected with a reporter plasmid encoding luciferase operably linked to the thymidine kinase (TK) promoter enhancer. The TK promoter enhancer is a constitutively active promoter element, meaning that it is not thyroid-specific and is fully active in all cell types.\nFor transfection, FTC 236 and SW-1736 cells were exposed to a transfection mixture of 0.5 micrograms of plasmid DNA, 4.5 microliters TransFast transfection reagent (Promega, Madison Wis.) and 200 microliters of RPMI medium. Plasmid DNA was either a TG-luciferase (TG-luc) construct or a TK-luciferase (TK-luc) construct. All transfections were performed in triplicate.\nAfter incubating cells for one hour with the transfection mixture, cells were cultured in the presence or absence of 1 ng/ml FR901228 for two days. Cells were then harvested and lysed, and an extract of cellular protein was obtained. Total protein concentration in the extract was determined using the Bio-Rad protein assay system (Bio-Rad, Richmond Calif.). Luciferase activity was determined using the Luciferase Assay System (Promega, Madison Wis.), and was normalized to total protein concentration. […]"}, "[3]": {"tested_on": "SW-1736 cells", "settings": "1 ng/ml FR901228 for 72 hours", "method": "(§1) FTC 133 and FTC 236 cells were derived from cultures obtained from the primary tumor (FTC 133) and a nodal metastasis (FTC 236) of a human follicular thyroid carcinoma. […] Anaplastic thyroid carcinoma lines SW-1736 and KAT-4 were derived from primary cultures of human anaplastic thyroid carcinoma tumors.\n(§2) Each of these four cell lines was exposed to varying concentrations of FR901228 (0.01 ng/ml, 0.1 ng/ml, 1 ng/ml, 10 ng/ml) for 72 hours, following which cell viability was determined using the 3-[4,5-dimethylthiazol-2-yl]-2,5-diphenyl tetrazoliumbromide (MTT) assay, as described in Mosmann, J Immunol Methods 65:55-63, 1983, and Den Boer et al., Br. J. Haem. 105: 876-882, 2000. The MTT assay is a colorimetric assay of the loss of mitochondrial metabolic activity associated with cell death."}, "[4]": {"tested_on": "KAT-4 cells", "settings": "1 ng/ml FR901228 for 72 hours", "method": "as §1, §2"}, "[5]": {"tested_on": "FTC 133 cells", "settings": "1 ng/ml FR901228 for 72 hours", "method": "as §1, §2"}, "[6]": {"tested_on": "FTC 236 cells", "settings": "1 ng/ml FR901228 for 72 hours", "method": "as §1, §2"}, "[7]": {"tested_on": "TG promoter-enhancer element", "assay": "TG-luciferase reporter assay in transfected thyroid carcinoma cells", "type": "cell-based, human", "settings": "1 ng/ml FR901228; for enhancement in luciferase activity over that observed in untreated cells / enhancement over RLU observed in untreated cells: TG-luc"}, "[8]": {"tested_on": "Na+/I- symporter", "assay": "125I iodine accumulation study in thyroid carcinoma cells", "type": "cell-based, human", "method": "To evaluate the function of the Na^+/I^− symporter, iodine accumulation studies were performed. FTC 133, FTC 236 SW-1736 and KAT-4 cells were treated with 1 ng/ml FR901228 for two or three days, or left untreated. Cells were then incubated in 0.5 ml of Hanks' Balanced Salt Solution (HBSS; Life Technologies, Inc., Eggenstein, Germany) containing approximately 2 μCi carrier-free Na^125I (DuPont NEN, Boston, Mass.) and 30 μM NaI] ^125I for 10 minutes. For perchlorate studies NaCIO4 was added as a 100X solution in HBSS, to a final concentration of 30 and 100 μM, immediately after the addition of radiolabeled iodine. Excess radiolabeled iodine was then removed, and the amount of ^125I accumulated in the cells was determined by gamma counting."}, "[9]": {"tested_on": "Na+/I- symporter", "assay": "RT PCR and northern blot analysis of Na+/I- symporter expression in thyroid carcinoma cells", "type": "cell-based, human", "method": "(§3) RT PCR and Northern blot analysis are described in detail in a number of standard molecular biology reference works, for example Ausubel et al., Short Protocols in Molecular Biology, John Wiley & Sons, 1998.\n(§4) Total RNA was extracted from FR901228-treated and untreated thyroid carcinoma cells using RNA STAT-60 (Tel-Test, Inc.), at 24 hours, 48 hours, and 72 hours following addition of FR901228-containing or control solution to the cell cultures. RNA was also extracted from normal thyroid cells for purposes of comparison. The extracted RNA was used without further modification for northern blots. For RT PCR, the extracted RNA was reverse transcribed into cDNA using standard techniques.\nOligonucleotide primers used for PCR analysis of human Na^+/I^− symporter expression were:\nUsing these primers, the presence of human Na^+/I^− symporter cDNA template is reflected by a 303 bp PCR product."}, "[10]": {"tested_on": "thyroglobulin", "assay": "RT PCR and northern blot analysis of thyroglobulin expression in thyroid carcinoma cells", "type": "cell-based, human", "method": "as §3, §4\nOligonucleotide primers used for PCR analysis of human thyroglobulin expression were: […]\nUsing these primers, the presence of human thyroglobulin cDNA template is reflected by a 219 bp PCR product."}, "[11]": {"settings": "ATC cells, 72 hours of FR901228 exposure"}, "[12]": {"settings": "FTC cells, 72 hours of FR901228"}, "[13]": {"settings": "FTC cells, RT PCR and northern blot"}}, "data": [{"smiles": "C/C=C1\\NC(=O)[C@H]2CSSCC/C=C/[C@H](CC(=O)N[C@H](C(C)C)C(=O)N2)OC(=O)[C@H](C(C)C)NC1=O", "note": "[FR901228]", "values": [{"measurement": "histone acetylation (nuclear fluorescence) relative to the control cells", "setting": "[1]; FTC 236 cells", "result": "marked increase"}, {"measurement": "histone acetylation (nuclear fluorescence) relative to the control cells", "setting": "[1]; SW-1736 cells", "result": "marked increase"}, {"measurement": "effect on luciferase activity in TK luc-transfected cells", "setting": "[2]", "result": "no effect"}, {"measurement": "cytotoxicity (cell viability, MTT assay)", "setting": "[3]", "result": "not significantly cytotoxic"}, {"measurement": "cytotoxicity (cell viability, MTT assay)", "setting": "[4]", "result": "not significantly cytotoxic"}, {"measurement": "cytotoxicity (cell viability, MTT assay)", "setting": "[5]", "result": "not significantly cytotoxic"}, {"measurement": "cytotoxicity (cell viability, MTT assay)", "setting": "[6]", "result": "not significantly cytotoxic"}, {"measurement": "relative luciferase units (RLU) in TG-luc transfected cells, TK luc = 100%", "setting": "[7]; FTC 133 cells", "result": "about 1000%"}, {"measurement": "enhancement in luciferase activity over that observed in untreated cells", "setting": "[7]; FTC 133 cells", "result": "greater than tenfold"}, {"measurement": "relative luciferase units (RLU) in TG-luc transfected cells, TK luc = 100%", "setting": "[7]; FTC 236 cells", "result": "about 1000%"}, {"measurement": "enhancement in luciferase activity over that observed in untreated cells", "setting": "[7]; FTC 236 cells", "result": "greater than tenfold"}, {"measurement": "relative luciferase units (RLU) in TG-luc transfected cells, TK luc = 100%", "setting": "[7]; KAT-4 cells", "result": "400-500%"}, {"measurement": "enhancement over RLU observed in untreated cells", "setting": "[7]; KAT-4 cells", "result": "greater than ten-fold"}, {"measurement": "relative luciferase units (RLU) in TG-luc transfected cells, TK luc = 100%", "setting": "[7]; SW-1736 cells", "result": "400-500%"}, {"measurement": "enhancement over RLU observed in untreated cells", "setting": "[7]; SW-1736 cells", "result": "greater than ten-fold"}, {"measurement": "iodine (125I) accumulation", "setting": "[8]; four cell lines (FTC 133, FTC 236, SW-1736, KAT-4), 1 ng/ml FR901228, two and three days", "result": "Marked increases"}, {"measurement": "time after FR901228 at which increased Na+/I- symporter expression was first observed", "setting": "[9]; ATC cells", "result": 48, "unit": "h"}, {"measurement": "Na+/I- symporter expression after 72 hours", "setting": "[9]; [11]", "result": "further increases"}, {"measurement": "Na+/I- symporter expression after 72 hours", "setting": "[9]; [12]", "result": "further increases"}, {"measurement": "time following addition of FR901228 at which increased Na+/I- symporter expression was detected", "setting": "[9]; [13]", "result": "≤ 24", "unit": "h"}, {"measurement": "time after FR901228 at which increased TG expression was first observed", "setting": "[10]; ATC cells", "result": 48, "unit": "h"}, {"measurement": "TG expression after 72 hours", "setting": "[10]; [11]", "result": "further increases"}, {"measurement": "TG expression after 72 hours", "setting": "[10]; [12]", "result": "further increases"}, {"measurement": "time following addition of FR901228 at which increased TG expression was detected", "setting": "[10]; [13]", "result": "≤ 24", "unit": "h"}]}, {"smiles": "[O-][Cl+3]([O-])([O-])O", "note": "[sodium perchlorate]", "values": [{"measurement": "inhibition of iodine (125I) accumulation", "setting": "[8]; FR901228-treated thyroid carcinoma cells, perchlorate 30 and 100 μM", "result": "inhibited in a dose-dependent manner"}]}]}
